Test results as given in US7935708B2, “Dihydropyrazolopyrimidinone derivatives” (MSD K.K., priority 2006, dated 2011).

What was measured:
[1] = test system: Cdc2 (Cdk1) tyrosine 15 phosphorylation in WiDr cells; assay: Cdc2 (Cdk1) tyrosine 15-phosphorylation-inhibitory effect in gemcitabine-treated WiDr cells (ELISA); assay type: cell-based; conditions: Homo sapiens, gemcitabine 100 nM 24 hours, then test compound with nocodazole 8 hours, read-out: Cdc2-Y15 Phosphorylation-Inhibitory Effect (WiDr, + gemcitabine) (EC50)
Source text: (§1) Pharmaceutical Text 2 (Method of Determining Drug Potency in Cells (Cdc2 (Cdk1) Tyrosine 15-Phosphorylation-Inhibitory Effect))
(§2) Fetal bovine serum (FBS) was obtained from Morgate; media RPMI1640 and DMEM were from Invitrogen; camptothecin was from Sigma; gemcitabine was from Nippon Eli Lilly; nocodazole and protease inhibitor cocktail were from Sigma; rabbit anti-Cdc2 antibody and mouse anti-Cdc2 antibody were from Santa Cruz Biotechnology; rabbit anti-tyrosine 15-phosphorylated Cdc2 antibody and horseradish peroxidase-labeled anti-mouse IgG antibody were from Cell Signaling Technology; sure blue reserve TMB peroxidase substrate was from Kirkegaard and Perry Laboratories.
(§3) Human non-small cell lung cancer cells (NCI-H1299) and human colon cancer cells (WiDr) were obtained from American Type Culture Collection (ATCC).
(§4) c) Method of Effect Determination:
In the method of using WiDr cells, the cells were suspended in DMEM containing 10% FBS, and the cell suspension was applied to a 96-well Nunclondelta-processed plastic plate in an amount of 2000 cells/100 μL/well, in which the cells were incubated overnight in 5% CO2-95% air at 37° C. Gemcitabine was dissolved in PBS, and diluted with DMEM containing 10% FBS, and then this was applied to the plate on which the cells had been previously sowed, in an amount of 50 μL/well in such a manner that the final concentration of gemcitabine could be 100 nM. Then, the cells were incubated for 24 hours at 37° C. in 5% CO2-95% air. The test compound was stepwise diluted with DMSO, then diluted with 1200 nM nocodazole-containing DMEM containing 10% FBS, and applied to the plate on which the gemcitabine-treated cells had been sowed, in an amount of 50 μL/well. The cells were incubated for 8 hours at 37° C. in 5% CO2-95% air, then the culture was removed, and a cytolytic buffer was added to the plate in an amount of 100 μL/well, shaken at 4° C. for 2 hours, then frozen at −80° C., and melted to give a cell solution. Cdc2 and tyrosine 15-phosphorylated Cdc2 in the cell solution were determined through ELISA, and the ratio of tyrosine 15-phosphorylated Cdc2 to Cdc2 was calculated to obtain the 50% phosphorylation-inhibitory concentration of the test compound to the cells (EC50, nM). Cdc2 was determined through ELISA as follows: A rabbit anti-Cdc2 antibody solution, which had been diluted 200-fold with 50 mM carbonate-bicarbonate buffer (pH 9.6), was applied to a 96-well maxisorp plastic plate in an amount of 50 μL/well, and statically kept overnight at 4° C. so as to fix the antibody on the plate. Next, this was washed three times with PBS, and 5% BSA/PBS was added thereto in an amount of 300 μL/well, and statically kept at room temperature for 2 hours, and then again washed three times with PBS. A mouse anti-Cdc2 antibody solution that had been diluted 100-fold with 1% BSA/TBS-T was added to it in an amount of 50 μL/well, and the cell solution was added thereto in an amount of 10 μL/well and statically kept overnight at 4° C. Next, this was washed three times with 0.1% BSA/TBS-T, and then a horseradish peroxidase-labeled anti-mouse IgG antibody solution that had been diluted 2000-fold with 1% BSA/TBS-T was added thereto in an amount of 70 μL/well, and statically kept at room temperature for 3 hours. Finally, this was washed five times with 0.1% BSA/TBS-T, then a substrate of sure blue reserve TMB peroxidase was added to it in an amount of 100 μL/well, and left for coloration in a dark place at room temperature for 15 minutes. Then, 1 M hydrochloric acid was added to it in an amount of 100 μL/well to stop the reaction, and this was analyzed through colorimetry. […]

[2] = test system: Cdc2 (Cdk1) tyrosine 15 phosphorylation in NCI-H1299 cells; assay: Cdc2 (Cdk1) tyrosine 15-phosphorylation-inhibitory effect in camptothecin-treated NCI-H1299 cells (ELISA); assay type: cell-based; conditions: Homo sapiens, camptothecin 200 nM 16 hours, then test compound with nocodazole 8 hours, read-out: Cdc2-Y15 Phosphorylation-Inhibitory Effect (H1299, + camptothecin) (EC50)
Source text: as §1, §2, §3, §4
In the method of using NCI-H1299 cells, the cells were suspended in RPMI1640 containing 10% FBS, and the cell suspension was applied to a 96-well Nunclondelta-processed plastic plate (bought from Nunc), in an amount of 2000 cells/100 μL/well, in which the cells were incubated overnight in 5% CO2-95% air at 37° C. Camptothecin was dissolved in dimethylsulfoxide (DMSO), and diluted with RPMI1640 containing 10% FBS, and then this was applied to the plate on which the cells had been previously sowed, in an amount of 50 μL/well in such a manner that the final concentration of camptothecin could be 200 nM. Then, the cells were incubated for 16 hours at 37° C. in 5% CO2-95% air. The test compound was stepwise diluted with DMSO, then diluted with 4000 nM nocodazole-containing RPMI1640 containing 10% FBS, and applied to the plate on which the camptothecin-treated cells had been sowed, in an amount of 50 μL/well. The cells were incubated for 8 hours at 37° C. in 5% CO2-95% air, then the medium was removed, and a cytolytic buffer was added to the plate in an amount of 100 μL/well, shaken at 4° C. for 2 hours, then frozen at −80° C., and melted to give a cell solution. Cdc2 and tyrosine 15-phosphorylated Cdc2 in the cell solution were determined through enzyme-linked immunosorbent assay (ELISA), and the ratio of tyrosine 15-phosphorylated Cdc2 to Cdc2 was calculated to obtain the 50% phosphorylation-inhibitory concentration of the test compound to the cells (EC50, nM). The cytolytic buffer used herein is an aqueous solution containing 20 mM Hepes (pH 7.5), 150 mM sodium chloride, 1 mM disodium ethylenediaminetetraacetate, 0.1% polyoxyethylene (10) octylphenyl ether, 1% protease inhibitor cocktail, 1 mM dithiothreitol, 2 mM sodium orthovanadate, 10 mM sodium fluoride and 10 mM glycerol diphosphate. Cdc2 was determined through ELISA as follows: A rabbit anti-Cdc2 antibody solution, which had been diluted 200-fold with 50 mM carbonate-bicarbonate buffer (pH 9.6), was applied to a 96-well maxisorpimmuno plate (bought from Nunc), in an amount of 50 μL/well, and statically kept overnight at 4° C. so as to fix the antibody on the plate. Next, this was washed three times with phosphate-buffered saline (PBS), and 5% bovine serum albumin-containing PBS (5% BSA/PBS) was added thereto in an amount of 300 μL/well, and statically kept at room temperature for 2 hours, and then again washed three times with PBS. A mouse anti-Cdc2 antibody solution that had been diluted 100-fold with 0.05% polyoxyethylene sorbitan monolaurate and 1% BSA-containing Tris-HCl-buffered saline (1% BSA/TBS-T) was added to it in an amount of 50 μL/well, and the cell solution was added thereto in an amount of 5 μL/well and statically kept overnight at 4° C. Next, this was washed three times with 0.05% polyoxyethylene sorbitan monolaurate and 0.1% BSA-containing Tris-HCl-buffered saline (0.1% BSA/TBS-T), and then a horseradish peroxidase-labeled anti-mouse IgG antibody solution that had been diluted 2000-fold with 1% BSA/TBS-T was added thereto in an amount of 70 μL/well, and statically kept at room temperature for 3 hours. […]

Structure (SMILES)	EC50 [1] [nM]	EC50 [2] [nM]
C=CCn1c(=O)c2cnc(Nc3ccc(N4CCN(C)CC4)c(CO)c3)nc2n1-c1ccsc1 [Example 3, 2-allyl-6-{[3-(hydroxymethyl)-4-(4-methylpiperazin-1-yl)phenyl]amino}-1-(3-thienyl)-1,2-dihydro-3H-pyrazolo[3,4-d]pyrimidin-3-one]	130	61
C=CCn1c(=O)c2cnc(Nc3ccc(N4CCN(C)CC4)cc3)nc2n1-c1cccc(N2CCN(C)C2=O)n1 [Example 148, 2-allyl-1-[6-(3-methyl-2-oxoimidazolidin-1-yl)pyridin-2-yl]-6-{[4-(4-methylpiperazin-1-yl)phenyl]amino}-1,2-dihydro-3H-pyrazolo[3,4-d]pyrimidin-3-one]	86	79
